Reference: PubChem BioAssay AID330 (DTP/NCI, 2004)
Several values for one entry are separate records, joined by “and”; a condition that tells them apart may be missing. Equal entries are not always repeated. Inconclusive results and toxic doses are left out. Rule for the calls: active = survival T/C of 150% or more; inactive = T/C below 125% in these data.

System: P388 leukemia ip, CD2F1 mice, survival T/C
Experiment: NCI In Vivo Anticancer Drug Screen. Data for tumor model P388 Leukemia (intraperitoneal) in CD2F1 (CDF1) mice
Settings: endpoint: median survival time, higher = longer survival
How it was run: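 Mice carrying the transplanted tumor received test compound or vehicle. Survival was recorded in each group, and the value is the treated-group measurement divided by that of the vehicle-treated control group.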

[1] = dose: 60.0 mg/kg/injection, schedule: Q01DX005 (ip), vehicle: saline with Tween-80
[2] = dose: 50.0 mg/kg/injection, schedule: Q01DX005 (ip), vehicle: Klucel (hydroxypropylcellulose) (HPC)
[3] = dose: 100.0 mg/kg/injection, schedule: Q01DX005 (ip), vehicle: Klucel (hydroxypropylcellulose) (HPC)
[4] = dose: 200.0 mg/kg/injection, schedule: Q01DX005 (ip), vehicle: Klucel (hydroxypropylcellulose) (HPC)
[5] = dose: 100.0 mg/kg/injection, schedule: Q04DX002 (ip), vehicle: saline with Tween-80
[6] = dose: 200.0 mg/kg/injection, schedule: Q04DX002 (ip), vehicle: saline with Tween-80
[7] = dose: 400.0 mg/kg/injection, schedule: Q04DX002 (ip), vehicle: saline with Tween-80
[8] = dose: 50.0 mg/kg/injection, schedule: Q01DX005 (ip), vehicle: saline with Tween-80
[9] = dose: 100.0 mg/kg/injection, schedule: Q01DX005 (ip), vehicle: saline with Tween-80
[10] = dose: 200.0 mg/kg/injection, schedule: Q01DX005 (ip), vehicle: saline with Tween-80

Measured: T/C

COc1ccc2c(c1O)-c1c(O)c(OC)cc3c1[C@H](C2)[N+](C)(C)CC3
inactive: dose: 12.5 mg/kg/injection, schedule: Q04DX003 (ip), vehicle: saline 109 % of control | dose: 25.0 mg/kg/injection, schedule: Q04DX003 (ip), vehicle: saline 114 % of control | dose: 50.0 mg/kg/injection, schedule: Q04DX003 (ip), vehicle: saline 98 % of control and 109 % of control | dose: 100.0 mg/kg/injection, schedule: Q04DX003 (ip), vehicle: saline 113 % of control

CN=C(N)N/N=C(\C)c1ccc2c(c1)Cc1cc(Br)ccc1-2
inactive: dose: 6.25 mg/kg/injection, schedule: Q04DX002 (ip), vehicle: saline with Tween-80 102 % of control | dose: 12.5 mg/kg/injection, schedule: Q04DX002 (ip), vehicle: saline with Tween-80 105 % of control | dose: 25.0 mg/kg/injection, schedule: Q04DX002 (ip), vehicle: saline with Tween-80 105 % of control and 124 % of control | dose: 50.0 mg/kg/injection, schedule: Q04DX002 (ip), vehicle: saline with Tween-80 98 % of control and 101 % of control

COc1ccc(NC(=S)C#N)cc1
inactive: dose: 15.0 mg/kg/injection, schedule: Q01DX005 (ip), vehicle: saline with Tween-80 99 % of control | dose: 30.0 mg/kg/injection, schedule: Q01DX005 (ip), vehicle: saline with Tween-80 99 % of control | [1] 99 % of control and 117 % of control

Cc1ccc(S(=O)(=O)OC2CN(S(=O)(=O)c3ccc(C)cc3)C2)cc1
inactive: [2] 100 % of control | [3] 91 % of control | [4] 90 % of control

CC1C2C=CC1C(c1c3ccc(=O)cc-3oc3cc(O)ccc13)C2C(=O)O (stereo not given)
inactive: [1] 99 % of control | dose: 120.0 mg/kg/injection, schedule: Q01DX005 (ip), vehicle: saline with Tween-80 100 % of control | dose: 240.0 mg/kg/injection, schedule: Q01DX005 (ip), vehicle: saline with Tween-80 101 % of control

FC(F)(F)C1(C(F)(F)F)[O][Sb]([c]2ccc(Cl)cc2)([c]2ccc(Cl)cc2)([c]2ccc(Cl)cc2)[O]1
inactive: dose: 50.0 mg/kg/injection, schedule: Q01DX009 (ip), vehicle: Klucel (hydroxypropylcellulose) (HPC) 103 % of control | dose: 100.0 mg/kg/injection, schedule: Q01DX009 (ip), vehicle: Klucel (hydroxypropylcellulose) (HPC) 88 % of control

COc1cc2nc(C)[n+]3nc([O-])ccc3c2cc1OC
inactive: dose: 60.0 mg/kg/injection, schedule: Q01DX005 (ip), vehicle: suspension in saline 112 % of control | dose: 120.0 mg/kg/injection, schedule: Q01DX005 (ip), vehicle: suspension in saline 104 % of control | dose: 240.0 mg/kg/injection, schedule: Q01DX005 (ip), vehicle: suspension in saline 108 % of control

CCN(CC)OCC=C(C)CCC=C(C)C (mixture of isomers)
inactive: [5] 111 % of control | [6] 109 % of control | [7] 108 % of control

c1ccc2c(-c3ccncc3)c3c(ccc4ccccc43)cc2c1
inactive: [8] 100 % of control | [9] 98 % of control | [10] 89 % of control

CN1CC(O)c2cc(N=NC(N)=O)c(O)cc21 (stereo not given)
inactive: [2] 96 % of control | [3] 91 % of control | [4] 108 % of control

CC(C)(C)[Si](C)(C)OC[C@@H]1OC=CC(=O)[C@H]1O
inactive: [2] 102 % of control | [3] 94 % of control | [4] 101 % of control

Cc1cc(Nc2ccccc2C(=O)N/N=C/c2ccc(N(CCCl)CCCl)cc2)nc2ccc(Cl)cc12
inactive: dose: 50.0 mg/kg/injection, schedule: Q01DX009 (ip), vehicle: saline 95 % of control | dose: 100.0 mg/kg/injection, schedule: Q01DX009 (ip), vehicle: saline 90 % of control | dose: 200.0 mg/kg/injection, schedule: Q01DX009 (ip), vehicle: saline 95 % of control

CC1=NN(C(=O)NS(=O)(=O)c2ccc(CCNC(=O)c3nccnc3N)cc2)CC1
inactive: [8] 96 % of control | [9] 105 % of control | [10] 105 % of control

CCC(=O)c1cccc2c(C=O)c(Cl)n(C(=O)CC)c12
inactive: dose: 50.0 mg/kg/injection, schedule: Q01DX001 (ip), vehicle: Klucel (hydroxypropylcellulose) (HPC) 100 % of control | dose: 100.0 mg/kg/injection, schedule: Q01DX001 (ip), vehicle: Klucel (hydroxypropylcellulose) (HPC) 100 % of control | dose: 200.0 mg/kg/injection, schedule: Q01DX001 (ip), vehicle: Klucel (hydroxypropylcellulose) (HPC) 101 % of control

C1CCc2[nH]nc(-c3n[nH]c4c3CCCCC4)c2CC1
inactive: dose: 60.0 mg/kg/injection, schedule: Q01DX005 (ip), vehicle: Klucel (hydroxypropylcellulose) (HPC) 100 % of control | dose: 120.0 mg/kg/injection, schedule: Q01DX005 (ip), vehicle: Klucel (hydroxypropylcellulose) (HPC) 94 % of control | dose: 240.0 mg/kg/injection, schedule: Q01DX005 (ip), vehicle: Klucel (hydroxypropylcellulose) (HPC) 96 % of control

COc1cc(/C=C/C(N)=O)cc(OC)c1OC
inactive: dose: 50.0 mg/kg/injection, schedule: Q04DX003 (ip), vehicle: saline with Tween-80 94 % of control | dose: 100.0 mg/kg/injection, schedule: Q04DX003 (ip), vehicle: saline with Tween-80 90 % of control | dose: 200.0 mg/kg/injection, schedule: Q04DX003 (ip), vehicle: saline with Tween-80 99 % of control | dose: 400.0 mg/kg/injection, schedule: Q04DX003 (ip), vehicle: saline with Tween-80 100 % of control

C=C1C(=O)C23C(O)CC4C5(C)CCCC4(C(O)OC5)C2C(OC(C)=O)CC1C3O (stereo not given)
inactive: dose: 4.0 mg/kg/injection, schedule: Q01DX009 (ip), vehicle: other 115 % of control | dose: 4.0 mg/kg/injection, schedule: Q01DX009 (ip), vehicle: water 114 % of control | dose: 8.0 mg/kg/injection, schedule: Q01DX009 (ip), vehicle: water 116 % of control | dose: 16.0 mg/kg/injection, schedule: Q01DX009 (ip), vehicle: other 122 % of control | dose: 16.0 mg/kg/injection, schedule: Q01DX009 (ip), vehicle: water 114 % of control | dose: 32.0 mg/kg/injection, schedule: Q01DX009 (ip), vehicle: water 107 % of control

O=c1oc2ccccc2n1Cc1ccc(Cl)cc1
inactive: dose: 6.25 mg/kg/injection, schedule: Q01DX005 (ip), vehicle: saline with Tween-80 102 % of control | dose: 12.5 mg/kg/injection, schedule: Q01DX005 (ip), vehicle: saline with Tween-80 93 % of control | dose: 25.0 mg/kg/injection, schedule: Q01DX005 (ip), vehicle: saline with Tween-80 99 % of control

COc1ccc2c(NCCCCCCCCCCNc3c4ccccc4nc4cc(OC)ccc34)c3ccccc3nc2c1
active: dose: 2.5 mg/kg/injection, schedule: Q01DX009 (ip), vehicle: other 153 % of control | dose: 5.0 mg/kg/injection, schedule: Q01DX009 (ip), vehicle: other 155 % of control

CN=C(c1ccc(NC(=O)c2cc(N)cc(C(=O)Nc3ccc(C(=NC)N(C)C)cc3)c2)cc1)N(C)C
inactive: dose: 6.25 mg/kg/injection, schedule: Q01DX005 (ip), vehicle: Klucel (hydroxypropylcellulose) (HPC) 104 % of control | dose: 12.5 mg/kg/injection, schedule: Q01DX005 (ip), vehicle: Klucel (hydroxypropylcellulose) (HPC) 104 % of control

CC(=O)Oc1cc2c(C)c3ccccc3cc2c2ccccc12
inactive: dose: 75.0 mg/kg/injection, schedule: Q01DX001 (ip), vehicle: Klucel (hydroxypropylcellulose) (HPC) 102 % of control | dose: 150.0 mg/kg/injection, schedule: Q01DX001 (ip), vehicle: Klucel (hydroxypropylcellulose) (HPC) 102 % of control | dose: 300.0 mg/kg/injection, schedule: Q01DX001 (ip), vehicle: Klucel (hydroxypropylcellulose) (HPC) 100 % of control

CCOC(=O)c1c(C)c(C(=O)OCC)n(CC)c1C=O
inactive: dose: 50.0 mg/kg/injection, schedule: Q01DX009 (ip), vehicle: saline with Tween-80 96 % of control | dose: 100.0 mg/kg/injection, schedule: Q01DX009 (ip), vehicle: saline with Tween-80 98 % of control | dose: 200.0 mg/kg/injection, schedule: Q01DX009 (ip), vehicle: saline with Tween-80 98 % of control

CN(C)C1(c2ccc3ccccc3c2)CS(=O)(=O)C1
inactive: [5] 100 % of control | [6] 98 % of control | [7] 92 % of control

COc1cc(CCN=Cc2ccccc2O)c([N+](=O)[O-])cc1OC
inactive: [2] 97 % of control | [3] 100 % of control | [4] 92 % of control

CC(=O)Nc1c(I)c(C(=O)NC2C(O)OC(CO)C(O)C2O)c(I)c(N(C)C(C)=O)c1I (stereo not given)
inactive: dose: 60.0 mg/kg/injection, schedule: Q01DX005 (ip), vehicle: saline 100 % of control | dose: 120.0 mg/kg/injection, schedule: Q01DX005 (ip), vehicle: saline 100 % of control | dose: 240.0 mg/kg/injection, schedule: Q01DX005 (ip), vehicle: saline 107 % of control

CCOc1c(N=Nc2ccccc2Cl)c(-c2ccccc2)nn1C(=S)S
inactive: [8] 105 % of control | [9] 99 % of control
